Reference: PubChem BioAssay (NCI)
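Grown in 96-well plates, cells were treated for 48 hours with each compound at five concentrations. Insufficient inhibition: endpoint recorded as highest concentration tested. GI50 = concentration required for 50% inhibition of growth. TGI is the concentration that stops growth completely.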

Key:
Assay in all cases: inhibition of tumour cell growth, NCI panel, 48 h
HOP-62 NSCLC = tested on: HOP-62 NSCLC
T-47D breast = tested on: T-47D breast
TK-10 renal = tested on: TK-10 renal
SNB-19 CNS = tested on: SNB-19 CNS
OVCAR-4 ovarian = tested on: OVCAR-4 ovarian
NCI/ADR-RES ovarian = tested on: NCI/ADR-RES ovarian
SF-268 CNS = tested on: SF-268 CNS
PC-3 prostate = tested on: PC-3 prostate
SK-MEL-2 melanoma = tested on: SK-MEL-2 melanoma
U251 CNS = tested on: U251 CNS
HCC-2998 colon = tested on: HCC-2998 colon
NCI-H522 lung = tested on: NCI-H522 lung
NCI-H460 lung = tested on: NCI-H460 lung
M14 melanoma = tested on: M14 melanoma
SK-MEL-5 melanoma = tested on: SK-MEL-5 melanoma
OVCAR-5 ovarian = tested on: OVCAR-5 ovarian
SF-295 CNS = tested on: SF-295 CNS
NCI-H226 lung = tested on: NCI-H226 lung
RPMI-8226 leukemia = tested on: RPMI-8226 leukemia
SK-MEL-28 melanoma = tested on: SK-MEL-28 melanoma
ACHN renal = tested on: ACHN renal
KM12 colon = tested on: KM12 colon
HOP-92 NSCLC = tested on: HOP-92 NSCLC
HS 578T breast = tested on: HS 578T breast
786-0 renal = tested on: 786-0 renal
A498 renal = tested on: A498 renal
MDA-MB-231 breast = tested on: MDA-MB-231 breast
HT29 colon = tested on: HT29 colon
COLO 205 colon = tested on: COLO 205 colon

Cc1nc2cc(-c3nn(C(C)C)c4ncnc(N)c34)ccc2o1
GI50 (HOP-62 NSCLC): 21.8 nM | TGI (HOP-62 NSCLC): 415 nM | GI50 (T-47D breast): 1.34 nM | TGI (T-47D breast): 15.8 nM | GI50 (TK-10 renal): 6.25 nM | TGI (TK-10 renal): 166 nM | GI50 (SNB-19 CNS): 41.2 nM | TGI (SNB-19 CNS): > 10000 nM | GI50 (OVCAR-4 ovarian): 6.46 nM | TGI (OVCAR-4 ovarian): 97 nM | GI50 (NCI/ADR-RES ovarian): 26.7 nM | TGI (NCI/ADR-RES ovarian): 537 nM | GI50 (SF-268 CNS): 14.3 nM | TGI (SF-268 CNS): 1840 nM | GI50 (PC-3 prostate): 6.5 nM | TGI (PC-3 prostate): 598 nM | GI50 (SK-MEL-2 melanoma): 21.3 nM | TGI (SK-MEL-2 melanoma): 137 nM | GI50 (U251 CNS): 19.4 nM | TGI (U251 CNS): 2350 nM | GI50 (HCC-2998 colon): 12.2 nM | TGI (HCC-2998 colon): > 10000 nM | GI50 (NCI-H522 lung): 3.64 nM | TGI (NCI-H522 lung): 787 nM | GI50 (NCI-H460 lung): 5.89 nM | TGI (NCI-H460 lung): > 10000 nM | GI50 (M14 melanoma): 9.73 nM | TGI (M14 melanoma): 1210 nM | GI50 (SK-MEL-5 melanoma): 15.8 nM | TGI (SK-MEL-5 melanoma): 103 nM | GI50 (OVCAR-5 ovarian): 14.9 nM | TGI (OVCAR-5 ovarian): 2180 nM | GI50 (SF-295 CNS): 6.99 nM | TGI (SF-295 CNS): 78.1 nM | GI50 (NCI-H226 lung): 5.05 nM | TGI (NCI-H226 lung): 191 nM | GI50 (RPMI-8226 leukemia): 3.42 nM | TGI (RPMI-8226 leukemia): 385 nM | GI50 (SK-MEL-28 melanoma): 6.62 nM | TGI (SK-MEL-28 melanoma): 125 nM | GI50 (ACHN renal): 10.2 nM | TGI (ACHN renal): 1220 nM | GI50 (KM12 colon): 17.2 nM | TGI (KM12 colon): 4980 nM | GI50 (HOP-92 NSCLC): 1.96 nM | TGI (HOP-92 NSCLC): 34.4 nM | GI50 (HS 578T breast): 5.18 nM | TGI (HS 578T breast): 47.3 nM | GI50 (786-0 renal): 13.6 nM | TGI (786-0 renal): 287 nM | GI50 (A498 renal): 1.85 nM | TGI (A498 renal): 6.89 nM | GI50 (MDA-MB-231 breast): 11.6 nM | TGI (MDA-MB-231 breast): > 3930 nM | GI50 (HT29 colon): 20.8 nM | TGI (HT29 colon): > 5340 nM | GI50 (COLO 205 colon): 12.1 nM | TGI (COLO 205 colon): 870 nM
